Results as given in patent US20230099031A1, “BIFUNCTIONAL AGENTS FOR PROTEIN RECRUITMENT AND/OR DEGRADATION” (Orionis Biosciences, Inc., priority 2019, published 2023).
Like-named read-outs stand apart in the source and are kept apart here.

Key:
DHFR = target: T1, DHFR (UniProt P0ABQ4+Q96SW2); experiment: Recruitment Assay (MAPPIT-like): DHFR recruitment to CRBN, pCLG-DHFR+pMG1-CRBN; format: cell-based, E. coli; conditions: for EC50: HEK293T cells, luciferase 24 hours after compound treatment, read-out: Recruitment EC50 (M), target protein DHFR
T1 construct: Full size proteins are fused for each of the target proteins tested; expressed in transfected cells; host or cells: HEK293T
Method: (§1) In this experimental set-up, cells are transfected with a construct encoding a CRBN-fusion protein and another one encoding a substrate-fusion protein. Test compound activity is assessed with increasing concentrations of test compounds (dose-response studies) to monitor the ability to promote CRBN-ligand-induced protein interaction.
(§2) Full size proteins are fused for each of the target proteins tested, except in the case of IKZF1 where isoform 7 is used, and BRD4, where isoform 3 is applied. For the study, the following construct combinations are used: IKZF1 recruitment: pSEL-CRBN+pMG1-IKZF1(isoform 7); ASS1 recruitment: pSEL-CRBN+pMG1-ASS1; SALL4 recruitment: pSEL-SALL4+pMG1-CRBN; DHFR recruitment: pCLG-DHFR+pMG1-CRBN; ESR1 recruitment: pSEL-CRBN+pMG1-ESR1; BRD4 recruitment: pSEL-CRBN+pMG1-BRD4(isoform 3). Cells are treated with erythropoietin (Epo; where pSEL-type receptor fusions constructs are used) or leptin (in the case pCLG-type receptor fusion constructs are applied) without or with the indicated dose of test compound at 24 hours after transfection. Luciferase activity is measured 24 hours after test compound treatment using the Luciferase Assay System kit (PROMEGA, Madison, Wis.) with an Ensight plate reader (PERKIN ELMER LIFE SCIENCES, Waltham, Mass.). Data points depict fold induction of the average luciferase activity of triplicate samples from Epo or leptin+test compound treated cells versus Epo or leptin only treated cells. Error bars represent standard deviations. Curves are fit using 4-parameter nonlinear regression in […] PRISM software.
Error bars represent standard deviations and curves were fit using 4-parameter nonlinear regression in […] PRISM software.

CRBN = target: T2, CRBN (Homo sapiens, UniProt Q96SW2); experiment: Competition Assay: MAPPIT-like, competition with trimethoprim-lenalidomide hybrid ligand for binding to CRBN in HEK293T cells; format: cell-based
T2 construct: expressed in transfected cells; host or cells: HEK293T

ESR1 = target: T3, ESR1 (Homo sapiens, UniProt P03372+Q96SW2); experiment: Recruitment Assay (MAPPIT-like): ESR1 recruitment, pSEL-CRBN+pMG1-ESR1; format: cell-based; conditions: HEK293T cells, luciferase 24 hours after compound treatment; read-out: Recruitment EC50 (M), target protein ESR1
T3 construct: Full size proteins are fused for each of the target proteins tested; expressed in transfected cells; host or cells: HEK293T
Method: as §1, with “In this Example 2, a similar MAPPIT-like assay is applied as described in Example 1 to determine test compound-induced binding of a particular substrate protein of interest to CRBN. In” for “In”
Specifically, HEK293T cells are transfected with a plasmid encoding the MAPPIT receptor fusion wherein the protein of interest (CRBN or substrate protein) is genetically linked to a cytoplasmic domain of the leptin receptor, which itself is fused to the extracellular domain of the erythropoietin (Epo) receptor (pSEL-X, where X represents either CRBN or any of the tested substrate proteins of interest) or to the extracellular domain of the leptin receptor (pCLG-X, where X represents either CRBN or any of the tested substrate proteins of interest), a plasmid encoding the MAPPIT gp130 fusion (pMG1-Y, Y being either any of the tested substrate proteins or CRBN) and a STAT3-responsive luciferase-encoding reporter plasmid (pXP2d2-rPAPI-luciferase reporter plasmid), as described (Lievens, et al. “Array MAPPIT: high-throughput interactome analysis in mammalian cells.” Journal of Proteome Research 8.2 (2009): 877-886). Full size proteins are fused for each of the target proteins tested, except in the case of IKZF1 where isoform 7 is used, and BRD4, where isoform 3 is applied. […] Luciferase activity is measured 24 hours after test compound treatment using the Luciferase Assay System kit (PROMEGA, Madison, Wis.) with an Ensight plate reader (PERKIN ELMER LIFE SCIENCES, Waltham, Mass.). […]

IKZF1 = target: T4, IKZF1 (Homo sapiens, UniProt Q13422+Q96SW2); experiment: Recruitment Assay (MAPPIT-like): IKZF1 recruitment, pSEL-CRBN+pMG1-IKZF1(isoform 7); format: cell-based; conditions: recruitment of IKZF1, protocol of Example 2; read-out: EC50_IKZF1
T4 construct: expressed in transfected cells; host or cells: HEK293T
Method: as §1, §2

ASS1 = target: T5, ASS1 (Homo sapiens, UniProt P00966+Q96SW2); experiment: Recruitment Assay (MAPPIT-like): ASS1 recruitment, pSEL-CRBN+pMG1-ASS1; format: cell-based; conditions: recruitment of ASS1, protocol of Example 2; for EC50: read-out: EC50_ASS1
T5 construct: Full size proteins are fused for each of the target proteins tested; expressed in transfected cells; host or cells: HEK293T
Method: as §1, §2

IKZF1, ASS1 and SALL4 = experiment: Recruitment assessment: recruitment of any tested substrate from among IKZF1, ASS1 and SALL4 (MAPPIT-like recruitment assays); format: cell-based; conditions: any tested substrate among IKZF1, ASS1, SALL4 at any tested concentration
SALL4 = target: T6, SALL4 (Homo sapiens, UniProt Q96SW2+Q9UJQ4); experiment: Recruitment Assay (MAPPIT-like): SALL4 recruitment, pSEL-SALL4+pMG1-CRBN; format: cell-based; conditions: recruitment of SALL4, protocol of Example 2; read-out: EC50_SALL4
T6 construct: Full size proteins are fused for each of the target proteins tested; expressed in transfected cells; host or cells: HEK293T
Method in brief: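 Cells co-transfected with CRBN- and substrate-fusion constructs (pSEL-CRBN+pMG1-ASS1; pSEL-SALL4+pMG1-CRBN; pSEL-CRBN+pMG1-IKZF1 isoform 7), then treated 24 h post-transfection with Epo ± compound dose series. Luciferase read after 24 h as fold induction over Epo alone (triplicates); 4-parameter nonlinear fit.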

[1] = HEK293T cells, 300 nM trimethoprim-lenalidomide hybrid ligand, luciferase 24 hours after compound treatment, read-out: Competition IC50
[2] = protocol and reagents of Example 1, read-out: IC50 Competition

Row | IC50 (CRBN; [2]) | EC50 (IKZF1) | Compound | EC50 (DHFR) | further results
1 |  |  | COc1cc(Cc2cnc(N)nc2N)cc(OC)c1OCCCCC(=O)NCCOCCOCCOCCNC(=O)c1ccc2c(Nc3ccc4c(c3)C(=O)N(C3CCC(=O)NC3=O)C4)ncnc2c1 (stereo not drawn) [Compound 5.20] | 1.01e-08 M | 
2 |  |  | CC/C(=C(\c1ccccc1)c1ccc(OCCN(C)CC(=O)NCCOCCOCCNC(=O)COc2cccc3c2CN(C2CCC(=O)NC2=O)C3=O)cc1)c1ccccc1 (stereo not drawn) [Compound 5.54] |  | IC50 (CRBN; [1]): 838 nM; EC50 (ESR1): 1.35e-07 M
3 |  |  | COc1cc(Cc2cnc(N)nc2N)cc(OC)c1OCCCCC(=O)NCCOCCOCCOCCNC(=O)CN1CCN(C(=O)CNc2ccc3c(c2)C(=O)N(C2CCC(=O)NC2=O)C3)C(C)C1 (stereo not drawn) [Compound 5.26] | 4.5e-07 M | 
4 |  |  | COc1cc(Cc2cnc(N)nc2N)cc(OC)c1OCCCCC(=O)NCCOCCOCCOCCn1cc(CCC(=O)Nc2cccc3c2CN(C2CCC(=O)NC2=O)C3=O)nn1 (stereo not drawn) [TMP-LEN, Trimethoprim-lenalidomide] | 1.86e-08 M | hybrid ligand-induced binding between CRBN and DHFR (MAPPIT signal, FIG. 3) (DHFR; CRBN as gp130 fusion, DHFR linked to MAPPIT chimeric membrane receptor): dose-dependent signal can be observed
5 |  |  | COc1cc(Cc2cnc(N)nc2N)cc(OC)c1OCCCCC(=O)NCCOCCOCCOCCNC(=O)c1ccc2ncnc(Nc3ccc4c(c3)C(=O)N(C3CCC(=O)NC3=O)C4)c2c1 (stereo not drawn) [Compound 5.19] | 4.2e-09 M | 
6 |  |  | COc1cc(Cc2cnc(N)nc2N)cc(OC)c1OCCCCC(=O)NCCOCCOCCOCCNC(=O)c1ccc2c(c1)CN(C(=O)CNc1ccc3c(c1)C(=O)N(C1CCC(=O)NC1=O)C3)C2 (stereo not drawn) [Compound 5.46] | 1.44e-08 M | 
7 | 7990 nM |  | O=C1CCC(N2Cc3ccc(NC(=O)c4cnc5[nH]cnc5c4)cc3C2=O)C(=O)N1 (stereo not drawn) [Compound C80394, N-[2-(2,6-dioxo-3-piperidyl)-3-oxo-isoindolin-5-yl]-3H-imidazo[4,5-b]pyridine-6-carboxamide] |  | Recruitment Assessment (IKZF1, ASS1 and SALL4): TRUE
8 |  |  | CC/C(=C(\c1ccccc1)c1ccc(OCCN(C)CC(=O)NCCOCCOCCOCCNC(=O)COc2cccc3c2CN(C2CCC(=O)NC2=O)C3=O)cc1)c1ccccc1 (stereo not drawn) [Compound 5.55] |  | IC50 (CRBN; [1]): 1050 nM; EC50 (ESR1): 4.42e-07 M
9 |  |  | COc1cc(Cc2cnc(N)nc2N)cc(OC)c1OCCCCC(=O)NCCOCCOCCOCCNC(=O)COc1ccc(Br)c2c1C(=O)N(C1CCC(=O)NC1=O)C2 (stereo not drawn) [Compound 5.13] | 4.69e-07 M | 
10 | 145 nM | 1290 nM | CN(C)c1ccc2c(c1)CN(C1CCC(=O)NC1=O)C2=O (stereo not drawn) [Compound C98103, 3-[5-(dimethylamino)-1-oxo-isoindolin-2-yl]piperidine-2,6-dione] |  | EC50_ASS1 (M) (ASS1): >>; EC50 (SALL4): < 13.7 nM
11 | 2290 nM | 2880 nM | Cc1cccc2nnn(C3CCC(=O)NC3=O)c(=O)c12 (stereo not drawn) [Compound C13247, 3-(5-methyl-4-oxo-1,2,3-benzotriazin-3-yl)piperidine-2,6-dione] |  | EC50 (ASS1): 8550 nM; EC50 (SALL4): 402 nM
12 |  |  | COc1cc(Cc2cnc(N)cc2N)cc(OC)c1OCCCCC(=O)NCCOCCOCCOCCNC(=O)COc1ccc2nc(C(=O)Cc3ccc4c(c3)C(=O)N(C3CCC(=O)NC3=O)C4)ccc2c1 (stereo not drawn) [Compound 5.10] | 7.95e-08 M | 
13 |  |  | COc1cc(Cc2cnc(N)nc2N)cc(OC)c1OCCCCC(=O)NCCOCCOCCOCCNC(=O)Cn1cc(CN(C)C(=O)CNc2ccc3c(c2)C(=O)N(C2CCC(=O)NC2=O)C3)cn1 (stereo not drawn) [Compound 5.23] | 1.19e-07 M | 
14 |  |  | COc1cc(Cc2cnc(N)nc2N)cc(OC)c1OCCCCC(=O)NCCOCCOCCOCCNC(=O)c1cccc(CNC(=O)CNc2ccc3c(c2)C(=O)N(C2CCC(=O)NC2=O)C3)c1 (stereo not drawn) [Compound 5.12] | 3.55e-08 M | 
15 | 50.4 nM | 77.4 nM | Cc1cccc2c1CN(C1CCC(=O)NC1=O)C2=O (stereo not drawn) [Compound C28558, 3-(4-methyl-1-oxo-isoindolin-2-yl)piperidine-2,6-dione] |  | EC50 (ASS1): 368 nM; EC50 (SALL4): < 13.7 nM
16 | 1340 nM | 1620 nM | N#Cc1ccc2c(c1)C(=O)N(C1CCC(=O)NC1=O)C2 (stereo not drawn) [Compound C48007, 2-(2,6-dioxo-3-piperidyl)-3-oxo-isoindoline-5-carbonitrile] |  | EC50_ASS1 (M) (ASS1): >>; EC50 (SALL4): 430 nM
17 |  |  | CC/C(=C(\c1ccccc1)c1ccc(OCCN(C)CC(=O)NCCOCCOCCOCCOCCNC(=O)COc2cccc3c2CN(C2CCC(=O)NC2=O)C3=O)cc1)c1ccccc1 (stereo not drawn) [Compound 5.53] |  | IC50 (CRBN; [1]): 1390 nM; EC50 (ESR1): 7.35e-07 M
18 | 113 nM | 1610 nM | Cc1ccc2c(c1)CN(C1CCC(=O)NC1=O)C2=O (stereo not drawn) [Compound C28577, 3-(5-methyl-1-oxo-isoindolin-2-yl)piperidine-2,6-dione] |  | EC50 (ASS1): 653 nM; EC50 (SALL4): < 13.7 nM

Row | Compound | IC50 (CRBN; [2]) | EC50 (IKZF1) | EC50 (DHFR) | further results
19 | Cc1ccc(NC(=O)NCc2ccc3c(c2)CN(C2CCC(=O)NC2=O)C3=O)cc1Cl (stereo not drawn) [CC-885, 1-(3-chloro-4-methyl-phenyl)-3-[[2-(2,6-dioxo-3-piperidyl)-1-oxo-isoindolin-5-yl]methyl]urea, reference compound] | 0.465 nM | < 13.7 nM |  | EC50 (ASS1): 80.1 nM; Recruitment Assessment (IKZF1, ASS1 and SALL4): TRUE
